# Values of other authors, collected in patent publication US7169982B2, “Starch” (Basf Plant Science GmbH, priority 2001, dated 2007).
# Like-named read-outs stand apart in the source and are kept apart here.
# Experiments:
# [1] = test system: maize starch synthase SSIIb-2 (N-terminally truncated form of mSSIIb produced in E. coli), non-mutant, SEQ ID NO:7; settings: read-out: Km (ADPGlc)
# [2] = test system: maize starch synthase SSIIb-2 (SEQ ID NO:7) mutant D21N; settings: read-out: Km (ADPGlc)
# [3] = test system: maize starch synthase SSIIb-2 (SEQ ID NO:7) mutant D21E; settings: amylopectin as primer, 5 mg/ml; read-out: Km (ADPGlc)
# [4] = test system: maize starch synthase SSIIb-2 (SEQ ID NO:7) mutant D139E; settings: read-out: Km (ADPGlc)
# [5] = test system: maize starch synthase SSIIb-2 (SEQ ID NO:7) mutant E391D; settings: read-out: Km (ADPGlc)
# [6] = test system: maize starch synthase SSIIa, wild-type, SEQ ID NO:8; settings: for Km: read-out: Km for ADPG
# [7] = test system: maize starch synthase SSIIa (SEQ ID NO:8) mutant K193R; settings: for Km: read-out: Km for ADPG
# [8] = test system: maize starch synthase SSIIa (SEQ ID NO:8) mutant K193Q; settings: for Km: read-out: Km for ADPG
# [9] = test system: maize starch synthase SSIIa (SEQ ID NO:8) mutant K193E; settings: for Km: read-out: Km for ADPG
# [10] = test system: maize starch synthase SSIIa (SEQ ID NO:8) mutant K497Q; settings: for Km: read-out: Km for ADPG
structure (smiles),measurement,setting,value
"Nc1ncnc2c1ncn2[C@@H]1O[C@H](COP(=O)(O)OP(=O)(O)O[C@H]2O[C@H](CO)[C@@H](O)[C@H](O)[C@H]2O)[C@@H](O)[C@H]1O [ADPGlc, ADP-glucose]",Km,"[1]; amylopectin as primer, 5 mg/ml",160 ± 30 µM
same,Km,"[1]; glycogen as primer, 20 mg/ml",130 ± 20 µM
same,Km,"[2]; amylopectin as primer, 5 mg/ml",1580 ± 110 µM
same,Km,"[2]; glycogen as primer, 20 mg/ml",1480 ± 30 µM
same,Km,[3],130 ± 30 µM
same,Km,"[4]; amylopectin as primer, 5 mg/ml",90 ± 30 µM
same,Km,"[4]; glycogen as primer, 20 mg/ml",70 ± 20 µM
same,Km,"[5]; amylopectin as primer, 5 mg/ml",1370 ± 140 µM
same,Km,"[5]; glycogen as primer, 20 mg/ml",1180 ± 140 µM
same,Vmax,[6]; amylopectin as primer,49.9 ± 4.06 μmol/min/mg protein
same,Km,[6]; amylopectin as primer,110 ± 10 µM
same,Vmax,[6]; glycogen as primer,34.47 ± 1.70 μmol/min/mg protein
same,Km,[6]; glycogen as primer,120 ± 10 µM
same,Vmax,[7]; amylopectin as primer,18.2 ± 0.91 μmol/min/mg protein
same,Km,[7]; amylopectin as primer,150 ± 10 µM
same,Vmax,[7]; glycogen as primer,42.27 ± 3.01 μmol/min/mg protein
same,Km,[7]; glycogen as primer,150 ± 20 µM
same,Vmax,[8]; amylopectin as primer,17.4 ± 1.58 μmol/min/mg protein
same,Km,[8]; amylopectin as primer,130 ± 10 µM
same,Vmax,[8]; glycogen as primer,6.20 ± 0.01 μmol/min/mg protein
same,Km,[8]; glycogen as primer,100 ± 10 µM
same,Vmax,[9]; amylopectin as primer,10.53 ± 0.5 μmol/min/mg protein
same,Km,[9]; amylopectin as primer,220 ± 10 µM
same,Vmax,[9]; glycogen as primer,25.45 ± 0.08 μmol/min/mg protein
same,Km,[9]; glycogen as primer,170 ± 20 µM
same,Vmax,[10]; amylopectin as primer,13.5 ± 0.21 μmol/min/mg protein
same,Km,[10]; amylopectin as primer,5620 ± 230 µM
same,Vmax,[10]; glycogen as primer,23.8 ± 2.5 μmol/min/mg protein
same,Km,[10]; glycogen as primer,6910 ± 330 µM
